Patent publication US20200318189A1 (CHANG GUNG MEMORIAL HOSPITAL, LINKOU, priority 2017, published 2020)

Legend:
[1] = test system: HLA-A*0207 and HLA-B*1502 alleles

Sensitivity (%) (HLA-A*0207 allele): 42.31% | Specificity (%) (HLA-A*0207 allele): 83.18% | Sensitivity (%) (HLA-B*1502 allele): 26.92% | Specificity (%) (HLA-B*1502 allele): 90.33% | Sensitivity (%) [1]: 61.54% | Specificity (%) [1]: 73.51%
Compound: Nc1nnc(-c2cccc(Cl)c2Cl)c(N)n1 [lamotrigine, Lamotrigine]
